Each compound was assayed against T1, human recombinant LPA2 expressed in CHO cells (Homo sapiens, UniProt Q9HBW0) (assay: FLIPR calcium mobilization assay, LPA2 antagonism in CHO-hLPA2 cells). Conditions: CHO-hLPA2 cells, inhibition of LPA EC80 Ca2+ response, 30 min pre-incubation; read-out: LPA2 IC50.
T1 construct: expressed in transfected cells; host or cells: CHO cells (CHO-hLPA2 cell line)
Type: cell-based
In short: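 Antagonist potency from four-parameter logistic fit (pIC50) of % inhibition of peak Ca2+ signal evoked by an EC80 LPA challenge. Before challenge, hLPA2-CHO cells were dye-loaded (5 μM Cal-520 AM, 2.5 mM probenecid, pH 7.4 HEPES buffer, 30 min, 37° C) and exposed 30 min to compound at 11 concentrations, 0.5% DMSO final.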

T1 sequence (Q9HBW0 whole entry): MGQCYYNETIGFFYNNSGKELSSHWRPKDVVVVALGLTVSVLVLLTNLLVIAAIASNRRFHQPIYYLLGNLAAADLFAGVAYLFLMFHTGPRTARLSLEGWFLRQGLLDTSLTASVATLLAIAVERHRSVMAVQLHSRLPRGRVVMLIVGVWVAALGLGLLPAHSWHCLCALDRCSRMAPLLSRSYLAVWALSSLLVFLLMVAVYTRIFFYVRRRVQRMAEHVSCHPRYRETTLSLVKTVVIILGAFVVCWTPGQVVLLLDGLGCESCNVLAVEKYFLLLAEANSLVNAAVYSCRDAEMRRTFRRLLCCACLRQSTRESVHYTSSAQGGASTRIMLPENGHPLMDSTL

Structure (SMILES)	IC50 [nM]
COC(=O)Nc1nc(C)c(S(=O)(=O)N2CCN(C[C@H](C)Nc3ncnc4c(-c5cnn(CCN(C)C)c5)cccc34)CC2)s1 [Example 58, methyl N-[5-({4-[(2S)-2-[(8-{1-[2-(dimethylamino)ethyl]-1H-pyrazol-4-yl}quinazolin-4-yl)amino]propyl]piperazin-1-yl}sulfonyl)-4-methyl-1,3-thiazol-2-yl]carbamate]	< 10
COC(=O)Nc1nc(C)c(S(=O)(=O)N2CCN(C[C@H](C)Nc3ncnc4c(-c5cn(C)nc5C(F)(F)F)cccc34)CC2)s1 [Example 30, methyl N-[4-methyl-5-({4-[(2S)-2-({8-[1-methyl-3-(trifluoromethyl)-1H-pyrazol-4-yl]quinazolin-4-yl}amino)propyl]piperazin-1-yl}sulfonyl)-1,3-thiazol-2-yl]carbamate]	< 10
COC(=O)Nc1nc(C)c(S(=O)(=O)N2CCN(C[C@H](C)Nc3ncnc4c(-c5cccc(CN6CCN(C)CC6)c5)cccc34)CC2)s1 [Example 24, methyl N-[4-methyl-5-({4-[(2S)-2-[(8-{3-[(4-methylpiperazin-1-yl)methyl]phenyl}quinazolin-4-yl)amino]propyl]piperazin-1-yl}sulfonyl)-1,3-thiazol-2-yl]carbamate]	< 10
COC(=O)Nc1nc(C)c(S(=O)(=O)N2CCN(C[C@H](C)Nc3ncnc4c(-c5ccccn5)cccc34)CC2)s1 [Example 29, methyl N-[4-methyl-5-({4-[(2S)-2-{[8-(pyridin-2-yl)quinazolin-4-yl]amino}propyl]piperazin-1-yl}sulfonyl)-1,3-thiazol-2-yl]carbamate]	< 10
COC(=O)Nc1nc(C)c(S(=O)(=O)N2CCN(C[C@H](C)Nc3ncnc4c(-c5ccnc(N6CCN(C)CC6)c5)cccc34)CC2)s1 [Example 44, methyl N-[4-methyl-5-({4-[(2S)-2-({8-[2-(4-methylpiperazin-1-yl)pyridin-4-yl]quinazolin-4-yl}amino)propyl]piperazin-1-yl}sulfonyl)-1,3-thiazol-2-yl]carbamate]	< 10
Cc1ccc(-c2cccc3c(N[C@@H](C)CN4CCN(S(=O)(=O)c5ccc6nc(C)sc6c5)CC4)ncnc23)cn1 [Example 99, N-[(2S)-1-{4-[(2-methyl-1,3-benzothiazol-6-yl)sulfonyl]piperazin-1-yl}propan-2-yl]-8-(6-methylpyridin-3-yl)quinazolin-4-amine]	10 to 100
C[C@@H](CN1CCN(S(=O)(=O)c2ccc(Cl)c(Cl)c2)CC1)Nc1ncnc2c(-c3cccc(CN(C)C)c3)cccc12 [Example 46, N-[(2S)-1-[4-(3,4-dichlorobenzenesulfonyl)piperazin-1-yl]propan-2-yl]-8-{3-[(dimethylamino)methyl]phenyl}quinazolin-4-amine]	< 10
COC(=O)Nc1nc(C)c(S(=O)(=O)N2CCN(C[C@H](C)Nc3ncnc4c(-c5cn(CCN(C)C)nc5C(F)(F)F)cccc34)CC2)s1 [Example 102, methyl N-[5-({4-[(2S)-2-[(8-{1-[2-(dimethylamino)ethyl]-3-(trifluoromethyl)-1H-pyrazol-4-yl}quinazolin-4-yl)amino]propyl]piperazin-1-yl}sulfonyl)-4-methyl-1,3-thiazol-2-yl]carbamate]	< 10
COC(=O)Nc1nc(C)c(S(=O)(=O)N2CCN(C[C@H](C)Nc3ncnc4c(-c5cnn(C)c5)cccc34)CC2)s1 [Example 65, methyl N-[4-methyl-5-({4-[(2S)-2-{[8-(1-methyl-1H-pyrazol-4-yl)quinazolin-4-yl]amino}propyl]piperazin-1-yl}sulfonyl)-1,3-thiazol-2-yl]carbamate]	< 10
